Experimental data taken from patent publication US20220296583A1, “COMPOSITIONS AND METHODS FOR TREATMENT OF OVARIAN AND BREAST CANCER” (Board of Regents, The University of Texas System, priority 2021, published 2022).
“Also recorded” adds a separate entry of the source.

Columns and labels:
[1] = test system: OVCAR8, SKOv3, OC316, MDA4772 and ES2 ovarian cancer cell lines; assay: Clonogenic survival assay, Compound B and carboplatin; format: cell-based; conditions: 12-14 days; five cell lines
Method: Cell viability was measured with a bioluminescence assay as described in the Examples, and IC50 values were calculated. (B) Sensitivity to carboplatin. Eight ovarian cancer cell lines were treated as above with different concentrations of carboplatin as indicated. […] The drug concentration ratio is indicated in each plot. The combination index at 50% growth inhibition was calculated using CalcuSyn software. (E) Effect of SIK2 knockout on the carboplatin dose response curve. Cells were treated with different concentrations of carboplatin as indicated. IC50 values for (A-C, E) were calculated by GraphPad Prism 8. […] Four hundred OVCAR8 or SKOv3 ovarian cancer cells were seeded in 6-well plates in culture medium for 24 h. […] The graphs indicate the mean colony formation numbers with standard deviations.
Cancer cells were seeded in 6-well plates at a density of 400 cells per well in culture medium for 24 h to permit cell adherence. […] After control colonies had grown to include at least 50 cells, cultures were fixed and stained with Coomassie blue (0.1% Coomassie brilliant blue R-250, 40% methanol, and 10% acetic acid) and counted. Colonies were counted from three independent experiments and the mean number of colonies and standard deviations calculated. Multiplicity adjusted p values for each treatment and control were determined.

survivin = assay: Survivin expression by western blot; format: cell-based; conditions: OC316 and OVCAR8; 48 h
Method: Cell lysates were collected and survivin expression was measured by western blot analysis. The experiments were performed three times individually. Densitometry values were determined by Image J shareware (NIH) and normalized to the GAPDH loading control. The values relative to the untreated group were plotted at the bottom.
Cells were incubated for 24-48 h with and without treatments and then harvested for western blot analysis. Briefly, cells were incubated in lysis buffer for 20 min on ice and centrifuged at 17,000×g for 10 min at 4° C. Protein concentration of cell lysates was determined with BCA reagent (Thermo Fisher Scientific, Houston, Tex., USA). Lysates were separated on 8-16% SDS-PAGE and transferred to polyvinylidene difluoride (PVDF) membranes. Immunoblots were probed with anti-survivin antibody (Novus; 1:2000, Centennial CO, USA) in 5% BSA overnight at 4° C. and HRP labeled secondary antibody was added for 1 h at RT. The signal was developed on X-ray films.
Many current cancer chemotherapies, including platinum-based drugs, exert their antitumor effect by triggering apoptosis in cancer cells. […] The inhibitor of apoptosis protein family (IAPs) includes an important group of proteins involved in the regulation of apoptosis. One member of this protein family, survivin, plays an important role in promoting tumor progression by deregulating apoptosis and cell division.

[2] = test system: OVCAR8, SKOv3, and OC316 ovarian cancer cell lines; assay: γ-H2AX punctae and comet assay, Compound B and carboplatin; conditions: 24 h
Method: (B) Cells were treated as described in (A) for 24 h. Then cells were dislodged, immobilized in agarose gel onto glass slide, and lysed. DNA was electrophoresed in alkaline buffer and stained by Vista Green. Olive tail moment (OTL) was measured as described in the Examples. Each plot depicts the mean of OTL (the bars indicate the standard deviation).
The OxiSelect™ Comet Assay Kit (Cell Biolabs, Inc., San Diego, Calif., USA) was used to evaluate DNA damage with or without drug treatment. […] Slides were electrophoresed in alkaline buffer at 1 volt/cm for 30 min. The cells were stained with 1× Vista Green DNA Dye for 15 min at RT and then viewed with a 4× fluorescence microscope. The percentage of DNA in the tail were analyzed with Casplab_1.2.3b2 (CaspLab Comet Assay Software, CASPLab, casplab.com). At least 50 randomly selected cells were analyzed per sample.

SKOv3 xenograft = assay: SKOv3 subcutaneous xenograft, Compound B, carboplatin and paclitaxel; format: in vivo, mice; conditions: SKOv3 s.c., 6 weeks
Method: After treatment as indicated in (A) for three weeks, mice were weighed, and intraperitoneal nodules were excised and weighed. […] Mice were treated with single, double, or triple agents for 6 weeks. Tumor was measured once a week until the tumor burden in control group reached maximum allowance. The graphs indicate the mean±standard deviation. Statistical significance is indicated by *p<0.05, **p<0.01, and ***p<0.0001.
Six-week-old female athymic nu/nu mice were purchased from Envigo. Experiments were reviewed and all procedures were performed according to an animal protocol approved by the Institutional Animal Care and Use Committee of UT MD Anderson Cancer Center. […] Carboplatin was administrated i.p. once a week at a dose of 25 mg/kg. […] Carboplatin was treated at a dose of 30 mg/kg once a week for six weeks. […] At end of six weeks, the mice were sacrificed by CO2. The mice were dissected immediately after death and the tumors were collected and weighed.
OVCAR8 cells were injected intraperitoneally (ip) into nu/nu mice. Treatment started 7 days post injection. […] At the conclusion of the treatment, the mice were sacrificed, and the tumor was dissected and weighed (FIG. 23A). […] The tumor volume was measured at indicated time points (FIG. 23D).

SIK1 = SIK1 (Homo sapiens, UniProt P57059); assay: SIK isoform dose response; format: biochemical
[3] = test system: SKOv3, OVCAR8, HCC5032, or MDA-MB-231 cells; assay: DNA damage: γ-H2AX staining and comet assay with olaparib; format: cell-based; conditions: SKOv3, OVCAR8, HCC5032, MDA-MB-231
Method: Cells were trypsinized and resuspended at 2×10^5/mL in cold PBS without Ca^2+ and Mg^2+. Cells were mixed with pre-warmed comet agarose at 1:10 (v/v) ratio. 10 uL of cell agarose mixture was plated onto comet slides pre-coated with 75 uL of agarose and chilled at 4° C. for 15 min to set. Cells were lysed in 25 mL of Lysis buffer at 4° C. for 2 hrs and washed with alkaline solution (pH 10). Comet slides were electrophoresed in cold alkaline solution at 20V for 15 min. Slides were rinsed with water and dried in 70% ethanol for 5 min. Slides were then stained with Vista Green DNA dye and viewed using an Olympus epifluorescence microscope with a FITC filter. Images were captured using a 20× objective. […] Experiments were run in triplicate and Olive Tail Moment was measured using CaspLab1.2.3β2 software (CaspLab.com). Olive Tail Moment=Tail DNA %×Tail Length. 50-200 Cells were measured for each treatment and experiments were repeated twice independently to ensure reproducibility.
Cells on 22×22 mm coverslips were fixed in 4% formaldehyde in PBS (Thermo Fisher, J19943-K2) and permeabilized with 0.1% Triton X-100 (Sigma, X100) in PBS for 15 min. Cells were blocked with 5% BSA in PBS for 30 min and then stained with antibody overnight at 4° C., followed by secondary antibody and DAPI for 1 hr. […] After 24-hrs incubation, cells were fixed in 4% formaldehyde in PBS. Cells were stained as described above. […] DNA damage visualized by γ-H2AX staining was evaluated by counting nuclear γ-H2AX puncta in each cell. […] After 8 hrs incubation, cells were fixed in 4% formaldehyde in PBS. Cells were stained as described above. Images were captured using an Olympus IX71 microscope and nuclear γ-H2AX puncta in each cells were counted using with Olympus CellSens Dimension software. HDAC5 (CST20458) and γ-H2AX (CST2577) antibodies were purchased from Cell Signaling Technology. Experiments were repeated twice independently to ensure reproducibility and 50-200 cells were counted for each treatment.

MDA-MB-231 xenograft = assay: MDA-MB-231 mammary fat pad xenograft, Compound B and olaparib; format: in vivo, mice; conditions: 50 mg/kg, oral, 5 weeks
Method: Forty female nu/nu mice were injected with 0.8×10^6 MDA-MB-231 cells into their fourth mammary fat pads. […] Tumors were measured every week as noted above (SKOv3 xenograft models).

[4] = test system: MDA-MB-231 orthotopic xenografts; assay: MDA-MB-231 orthotopic xenografts; format: in vivo, mice
Method: To evaluate additive or synergistic interactions, a combination Index (CI value) was calculated with CalcuSyn software.

[5] = test system: OVCAR8, SKOv3, OC316, OVCAR3, ES2, A2780, MDA2774, and IGROV1 cells; assay: Short term cell proliferation (CellTiter-Glo), eight ovarian cancer cell lines; format: cell-based, human; conditions: single concentration of Compound B 0.75-1.25 μM; p<0.01
Method: Cells were seeded in 6 replicates in black-walled and clear-bottomed 96-well plates and incubated overnight. […] The CellTiter-Glo luminescent cell viability assay (Promega) was used to evaluate the effect of treatment on cancer growth. This experiment was performed several times to optimize the concentration. […] GraphPad Prism 8 was used to generate growth curves and calculated IC50. CalcuSyn was used to evaluate additive or synergistic interactions, a combination Index (CI value).

[6] = Pre-clinical toxicology studies; format: in vivo

Sequence of SIK1 (P57059 whole entry, canonical isoform): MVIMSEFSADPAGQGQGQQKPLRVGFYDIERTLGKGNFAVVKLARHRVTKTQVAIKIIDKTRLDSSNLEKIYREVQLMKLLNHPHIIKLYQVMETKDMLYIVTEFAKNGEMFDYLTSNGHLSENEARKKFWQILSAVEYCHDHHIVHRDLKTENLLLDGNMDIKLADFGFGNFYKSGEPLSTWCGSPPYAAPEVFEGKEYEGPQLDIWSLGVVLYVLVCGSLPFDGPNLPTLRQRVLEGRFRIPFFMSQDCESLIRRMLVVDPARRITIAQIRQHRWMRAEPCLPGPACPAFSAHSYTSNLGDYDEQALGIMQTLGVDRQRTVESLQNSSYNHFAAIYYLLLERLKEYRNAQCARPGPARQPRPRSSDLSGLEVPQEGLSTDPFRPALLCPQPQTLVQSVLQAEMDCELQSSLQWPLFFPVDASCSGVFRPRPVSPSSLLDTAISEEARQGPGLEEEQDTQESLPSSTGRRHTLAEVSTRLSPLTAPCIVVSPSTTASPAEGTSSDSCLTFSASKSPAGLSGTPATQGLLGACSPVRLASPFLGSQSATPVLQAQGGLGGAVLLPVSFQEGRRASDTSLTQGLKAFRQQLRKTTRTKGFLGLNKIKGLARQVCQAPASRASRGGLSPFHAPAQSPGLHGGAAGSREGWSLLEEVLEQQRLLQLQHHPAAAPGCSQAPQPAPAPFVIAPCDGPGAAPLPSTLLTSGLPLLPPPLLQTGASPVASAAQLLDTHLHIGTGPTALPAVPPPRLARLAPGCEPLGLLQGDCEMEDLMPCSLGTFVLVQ

## COc1c(F)cc(F)cc1-c1c[nH]c2ncc(-c3cnn(C4CCN(S(C)(=O)=O)CC4)c3)cc12 [Compound B, 3-(3,5-difluoro-2-methoxyphenyl)-5-(1-(1-(methylsulfonyl)piperidin-4-yl)-1H-pyrazol-4-yl)-1H-pyrrolo[2,3-b]pyridine]
[1]
  clonogenic survival: significantly enhanced carboplatin induced loss of clonogenic survival
survivin
  survivin expression: downregulation of survivin
[2]
  comet tail moment induced with carboplatin: further enhanced
SKOv3 xenograft; Compound B 40 mg/kg
  tumor growth (tumor volume): significantly inhibited tumor growth
SKOv3 xenograft; p<0.01
  effect when added to carboplatin plus paclitaxel: further enhanced the combination treatment of carboplatin plus paclitaxel
SIK1
  IC50: 0.351 µM
[3]
  levels of γ-H2AX and tailed DNA: modestly increased
MDA-MB-231 xenograft
  tumor burden / tumor volume: remained unchanged
[4]
  xenograft growth and survival: inhibited xenograft growth and prolonged the survival
[5]
  carboplatin dose response curve when Compound B was added: shifted to the left in seven of eight ovarian cancer cell lines
[6]
  hematologic / hematopoietic toxicity: minimal hematologic toxicity; also recorded: little effect on normal hematopoietic or organ function; also recorded: little or no hematopoietic toxicity
